We go through 6 molecules from ChEMBL document CHEMBL1201862, “PubChem BioAssay data set” (2004).

The structures appear in SMILES notation.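 Assay format: 96-well plates, 48-hour exposure. GI50: concentration for 50% inhibition of growth.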 The source made the active and inactive calls. Cut-off read from the data, not from the text of the source: active = GI50 up to about 1.1 µM and inactive = higher. A value given as a limit tells only on which side of the number the result lay.

Among the test systems are IGROV-1; XF498; U-251; UACC-257; CAKI-1; SW-620; HOP-62; HOP-92; SK-MEL-2; MOLT-4; LXFL 529; K562; CCRF-CEM; NCI-H522; OVCAR-3; KM-20L2; DMS-114; DLD-1; DMS-273.
Assay in all cases: NCI tumour cell line growth inhibition, 48 h

For `COC(=O)/C(=N\NC(=O)c1ccccc1O)C(C#N)c1ccccc1` (stereo not drawn), the GI50 is 19.5 µM (inactive) in the assay on IGROV-1; 17.3 µM (inactive) in the assay on XF498; 32.1 µM (inactive) in the assay on U-251; 25.9 µM (inactive) in the assay with UACC-257; 27.7 µM (inactive) in the assay on CAKI-1; 23.5 µM (inactive) in the assay on SW-620. Further, the GI50 was 20.7 µM (inactive) in the assay with HOP-62; 19.9 µM (inactive) in the assay with HOP-92; > 50 µM (inactive) in the assay on SK-MEL-2; 22.3 µM (inactive) in the assay with MOLT-4; 21.5 µM (inactive) with LXFL 529; 16.4 µM (inactive) in the assay on K562. Further, the GI50 with CCRF-CEM is 19.4 µM (inactive); with NCI-H522 it was 17.2 µM (inactive); in the assay with OVCAR-3 it was 16.6 µM (inactive); in the assay on KM-20L2, > 50 µM (inactive); with DMS-114, 15.9 µM (inactive); with DLD-1 it was 24 µM (inactive). The GI50 in the assay on DMS-273 was 19 µM (inactive).

In the case of `CCCN(CCCC(NC(C)=O)C(=O)NCc1ccccc1)C(=O)N(C)N=O` (stereo not drawn), the GI50 in the assay with IGROV-1, in the assay with XF498, in the assay on U-251, with UACC-257, with CAKI-1 and with SW-620 was > 100 µM (inactive) throughout. Further, the GI50 was > 100 µM (inactive) with HOP-62; > 100 µM (inactive) in the assay with HOP-92; > 100 µM (inactive) in the assay with SK-MEL-2; 77.6 µM (inactive) with MOLT-4; > 100 µM (inactive) in the assay on LXFL 529; > 100 µM (inactive) with K562. Further, the GI50 in the assay on CCRF-CEM, in the assay on NCI-H522, in the assay on OVCAR-3, in the assay with KM-20L2, in the assay with DMS-114 and with DLD-1 was > 100 µM (inactive) in each case. In addition, the GI50 in the assay on DMS-273 is > 100 µM (inactive).

On to `Cc1ccc(NC(=O)C(=O)Cc2cc[n+]([O-])cc2)cc1`, for which the GI50 in the assay with IGROV-1, in the assay with XF498, with U-251, with UACC-257, with CAKI-1 and in the assay on SW-620 was > 100 µM (inactive) each time. Also, the GI50 in the assay with HOP-62, in the assay on HOP-92, in the assay on SK-MEL-2, in the assay on MOLT-4, in the assay with LXFL 529 and in the assay on K562 was > 100 µM (inactive) in each case. The GI50 in the assay with CCRF-CEM, with NCI-H522, in the assay on OVCAR-3, in the assay on KM-20L2, in the assay on DMS-114 and in the assay with DLD-1 was > 100 µM (inactive) throughout. For the same molecule, in the assay with DMS-273, the GI50 is > 100 µM (inactive).

On to `Cc1c2ccccc2c(C)c2c3c(ccc12)C(=O)C=CC3=O`, for which the GI50 in the assay with IGROV-1 was 20 µM (inactive); in the assay with XF498, 17 µM (inactive); with U-251 it was 52.1 µM (inactive); in the assay with UACC-257, 16.3 µM (inactive); in the assay with CAKI-1, 22.1 µM (inactive); with SW-620, 21.6 µM (inactive). The GI50 in the assay with HOP-62 is > 44.5 µM (inactive); in the assay on HOP-92, 15.1 µM (inactive); with SK-MEL-2, 45.7 µM (inactive); in the assay with MOLT-4, 2.26 µM (inactive); with LXFL 529, 17.3 µM (inactive); with K562 it was 11.3 µM (inactive). For the same molecule, the GI50 with CCRF-CEM is 2.49 µM (inactive); with NCI-H522 it was 13.6 µM (inactive); in the assay with OVCAR-3 it was 17.8 µM (inactive); in the assay with KM-20L2 it was 41.9 µM (inactive); in the assay with DMS-114 it was 11.8 µM (inactive); in the assay on DLD-1 it was 18.5 µM (inactive). The GI50 in the assay with DMS-273 was 64.7 µM (inactive).

Regarding `C=CC/N=C1/N=C(CC(=O)OCC)CS1`, the GI50 with IGROV-1, in the assay on XF498, in the assay on U-251, with UACC-257, in the assay with CAKI-1 and in the assay with SW-620 was > 100 µM (inactive) in each case. Besides, the GI50 in the assay on HOP-62, in the assay on HOP-92, in the assay on SK-MEL-2, in the assay with LXFL 529, in the assay with K562 and in the assay on CCRF-CEM was > 100 µM (inactive) in each case. The GI50 in the assay with NCI-H522, in the assay with OVCAR-3, with KM-20L2, in the assay on DMS-114, in the assay with DLD-1 and in the assay with DMS-273 was > 100 µM (inactive) in each case.

For the molecule `COc1ccc(/C=C/c2cc(OC)c(OC)c(OC)c2)cc1`, the GI50 with IGROV-1 was 11 µM (inactive); in the assay on XF498, 0.592 µM (active); in the assay with U-251, 2.61 µM (inactive); in the assay on UACC-257 it was > 100 µM (inactive); in the assay with CAKI-1 it was 3.53 µM (inactive); with SW-620 it was 5.77 µM (inactive). Further, the GI50 in the assay on HOP-62 was 3.48 µM (inactive); in the assay with HOP-92, 90.8 µM (inactive); in the assay on SK-MEL-2 it was 2.36 µM (inactive); in the assay on MOLT-4, 2.21 µM (inactive); in the assay with LXFL 529, 31.8 µM (inactive); with K562 it was 3.2 µM (inactive). The GI50 in the assay on CCRF-CEM is 1.66 µM (inactive); with NCI-H522 it was 2.85 µM (inactive); in the assay on OVCAR-3, 3.26 µM (inactive); with KM-20L2, 2.34 µM (inactive); in the assay on DMS-114, 27 µM (inactive); in the assay on DLD-1, 0.897 µM (active). In the assay with DMS-273, the GI50 is 2.8 µM (inactive).
